Measured values as given in patent US20250179059A1 (The Regents of the University of California, priority 2021, published 2025).
Where two headings read alike, the source gives them in different places.

How the values were obtained:
[1] = tested on: human SKM-1 acute myeloid leukemia cells; test: SKM-1 antiproliferation cell-based assay (ATPlite); conditions: Homo sapiens
Outline: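 Log-phase cells in RPMI 1640/15% FBS were seeded at 34722 cells/mL and exposed for 4 days to nine-concentration DMSO serial dilutions in triplicate. Viability was read as ATP luminescence (ATPlite 1step), and IC50 values came from variable-slope non-linear regression.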

[2] = molecular target: T1, human BRD4 bromodomain II (Homo sapiens, UniProt O60885); test: Bromodomain binding assay (AlphaScreen), BRD4 BDII
T1 construct: human BRD4 bromodomain II [based on Genbank NM_058243, residues 349-460]; host or cells: E. coli
Outline: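 Read-out is AlphaScreen signal (ex 680 nm, em 520-620 nm) from streptavidin donor beads on a biotinylated acetylated histone H4 (aa 1-21) peptide and nickel acceptor beads on the His6-tagged bromodomain. IC50 values come from curve fits of percentage peptide binding against compound concentration.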

[3] = SKM-1, SKM-1 antiproliferation assay
[4] = BRD4 BDII AlphaScreen assay, read-out: BRD4 BD2 IC50
[5] = SKM-1, 96 h, SKM-1 antiproliferation assay, 4 days, Table C2
[6] = AlphaScreen assay, Table C2, read-out: BRD4 BDII IC50

| GI50 [1, 3] [nM] | IC50 [2, 4] [nM] | GI50 [1, 5] [nM] | IC50 [2, 6] [nM] | Structure (SMILES) |
| --- | --- | --- | --- | --- |
| 0.3 to 30 | 1 to 10 |  |  | CNc1ncc(-c2cc(F)cc(-c3ccc(-n4ccn(C)c4=O)c(Cl)c3)c2O)cc1N1CCC2(CCN2C(C)C)C1 (stereo not shown) [Example 965, 1-{3-Chloro-5′-fluoro-2′-hydroxy-3′-[5-(1-isopropyl-1,6-diaza-spiro[3.4]oct-6-yl)-6-methylamino-pyridin-3-yl]-biphenyl-4-yl}-3-methyl-1,3-dihydro-imidazol-2-one] |
|  |  | ≥ 3000 | 10 to 100 | CN1CCN(c2ccc(-c3cccc(-c4ccc5[nH]c6c(c5c4)CNCC6)c3O)cc2Cl)C1=O [Example 369, 1-(3-chloro-2′-hydroxy-3′-(2,3,4,5-tetrahydro-1H-pyrido[4,3-b]indol-8-yl)-[1,1′-biphenyl]-4-yl)-3-methylimidazolidin-2-one] |
|  |  | 0.3 to 30 | 1 to 10 | Cn1ccn(-c2ccc(-c3cc(F)cc(-c4ccnc(N5CCC(C)(N6CCCC6)C5)c4)c3O)cc2Cl)c1=O (stereo not shown) [Example 822, 1-(3-chloro-5′-fluoro-2′-hydroxy-3′-(2-(3′-methyl-[1,3′-bipyrrolidin]-1′-yl)pyridin-4-yl)-[1,1′-biphenyl]-4-yl)-3-methyl-1H-imidazol-2(3H)-one] |
|  |  | 30 to 300 | 1 to 10 | C[C@@H]1CN(c2cncc(-c3cccc(-c4ccc(N5CCCC5=O)c(Cl)c4)c3O)c2)CCN1 [Example 265, (R)-1-(3-chloro-2′-hydroxy-3′-(5-(3-methylpiperazin-1-yl)pyridin-3-yl)-[1,1'-biphenyl]-4-yl)pyrrolidin-2-one] |
| 30 to 300 | 1 to 10 |  |  | Cc1ccc(-c2cc(F)cc(-c3ccc(-n4ccn(C)c4=O)c(Cl)c3)c2O)cc1N1CC(C)(O)C2(CC2)C1 (stereo not shown) [Example 854, 1-(3-Chloro-5′-fluoro-2′-hydroxy-338-(7-hydroxy-7-methyl-5-azaspiro[2.4]heptan-5-yl)-4″-methyl-[1,1′:3′,1″-terphenyl]-4-yl)-3-methyl-1H-imidazol-2(3H)-one] |
|  |  | 300 to 3000 | 1 to 10 | Cn1ccn(-c2ccc(-c3cc(F)cc(-c4ccnc(-c5cccnc5)c4)c3O)cc2Cl)c1=O [Example 480, 1−(3′-([2,3′-bipyridin]-4-yl)-3-chloro-5′-fluoro-2′-hydroxy-[1,1′-biphenyl]-4-yl)-3-methyl-1H-imidazol-2(3H)-one] |
| 300 to 3000 | 1 to 10 |  |  | Cn1ccn(-c2ccc(-c3cc(F)cc(-c4ccccc4N4CCNCC4)c3O)cc2Cl)c1=O [Example 870] |
|  |  | 0.3 to 30 | 1 to 10 | Cn1cc(-c2cc(F)cc(-c3ccc(-n4ccn(C)c4=O)c(Cl)c3)c2O)cc(N2CCNCC2)c1=O [Example 437, 5-(3′-chloro-5-fluoro-2-hydroxy-4′-(3-methyl-2-oxo-2,3-dihydro-1H-imidazol-1-yl)-[1,1′-biphenyl]-3-yl)-1-methyl-3-(piperazin-1-yl)pyridin-2(1H)-one] |
| 300 to 3000 | > 100 |  |  | CC(=O)Nc1ccc(-c2cc(F)cc(-c3cccc(N4CCN(C(C)(C)C)CC4)c3)c2O)nn1 [Example 896] |
| 0.3 to 30 | 1 to 10 |  |  | COc1ncc(-c2nc(C)cc(-c3ccc(-n4ccn(C)c4=O)c(C)c3)c2O)cc1N1CCN(C(C)(C)C)CC1 [Example 1015, 1-(4-(5′-(4-(tert-butyl)piperazin-1-yl)-3-hydroxy-6′-methoxy-6-methyl-[2,3′-bipyridin]-4-yl)-2-methylphenyl)-3-methyl-1H-imidazol-2(3H)-one] |
|  |  | 0.3 to 30 | 1 to 10 | Cn1ccn(-c2ccc(-c3cc(F)cc(-c4cc(N5CCNCC5)c5nn[nH]c5c4)c3O)cc2Cl)c1=O [Example 535, 1-(3-chloro-5′-fluoro-2′-hydroxy-3′-(4-(piperazin-1-yl)-1H-benzo[d][1,2,3]triazol-6-yl)-[1,1′-biphenyl]-4-yl)-3-methyl-1H-imidazol-2(3H)-one] |
| 0.3 to 30 | 1 to 10 |  |  | COc1ncc(-c2cc(F)cc(-c3ccc(-n4c(C)cn(C)c4=O)c(Cl)c3)c2O)cc1N1CCN(C(C)(C)C)CC1 [Example 941, 3-(3′-(5-(4-(tert-butyl)piperazin-1-yl)-6-methoxypyridin-3-yl)-3-chloro-5′-fluoro-2′-hydroxy-[1,1′-biphenyl]-4-yl)-1,4-dimethyl-1H-imidazol-2(3H)-one] |
|  |  | 0.3 to 30 | 0.01 to 1 | CC(=O)NC1(C)CCN(c2cc(-c3cc(F)cc(-c4ccc(-n5ccn(C)c5=O)c(Cl)c4)c3O)ccn2)CC1 [Example 790, N-(1-(4-(3′-chloro-5-fluoro-2-hydroxy-4′-(3-methyl-2-oxo-2,3-dihydro-1H-imidazol-1-yl)-[1,1′-biphenyl]-3-yl)pyridin-2-yl)-4-methylpiperidin-4-yl)acetamide] |
|  |  | 30 to 300 | 1 to 10 | C[C@@H]1CN(c2cc(-c3cc(F)cc(-c4ccc(N5CCN(C)C5=O)c(Cl)c4)c3O)cn(C)c2=O)CCN1 [Example 377, (R)-5-(3′-chloro-5-fluoro-2-hydroxy-4′-(3-methyl-2-oxoimidazolidin-1-yl)-[1,1′-biphenyl]-3-yl)-1-methyl-3-(3-methylpiperazin-1-yl)pyridin-2(1H)-one] |
|  |  | 30 to 300 | 1 to 10 | CN1CCN(c2ccc(-c3cccc(-c4cc(CO)cc(N5CCNCC5)c4)c3O)cc2Cl)C1=O [Example 355, 1-(3-chloro-2′-hydroxy-3″-(hydroxymethyl)-5″-(piperazin-1-yl)-[1,1′:3′,1″-terphenyl]-4-yl)-3-methylimidazolidin-2-one] |
|  |  | 0.3 to 30 | 1 to 10 | Cn1ccn(-c2ccc(-c3cc(F)cc(-c4cc(N5CCC[C@@H](N)C5)c5cn[nH]c5c4)c3O)cc2Cl)c1=O [Example 586, (R)-1-(3′-(4-(3-aminopiperidin-1-yl)-1H-indazol-6-yl)-3-chloro-5′-fluoro-2′-hydroxy-[1,1′-biphenyl]-4-yl)-3-methyl-1H-imidazol-2(3H)-one] |
|  |  | 0.3 to 30 | 0.01 to 1 | Cn1ccn(-c2ccc(-c3cc(F)cc(-c4cncc(N5CCC(C)(O)C5)c4)c3O)cc2Cl)c1=O (stereo not shown) [Example 708, 1-(3-chloro-5′-fluoro-2′-hydroxy-3′-(5-(3-hydroxy-3-methylpyrrolidin-1-yl)pyridin-3-yl)-[1,1′-biphenyl]-4-yl)-3-methyl-1H-imidazol-2(3H)-one] |
|  |  | 0.3 to 30 | 0.01 to 1 | CN1CCCC12CCN(c1cc(-c3cc(F)cc(-c4ccc(-n5ccn(C)c5=O)c(Cl)c4)c3O)cn(C)c1=O)C2 (stereo not shown) [Example 696, 5-(3′-chloro-5-fluoro-2-hydroxy-4′-(3-methyl-2-oxo-2,3-dihydro-1H-imidazol-1-yl)-[1,1′-biphenyl]-3-yl)-1-methyl-3-(1-methyl-1,7-diazaspiro[4.4]nonan-7-yl)pyridin-2(1H)-one] |
|  |  | 0.3 to 30 | 0.01 to 1 | Cn1ccn(-c2ccc(-c3cc(F)cc(-c4ccnc(N5CC[C@](C)(N)C5)c4)c3O)cc2Cl)c1=O [Example 711, (S)-1-(3′-(2-(3-amino-3-methylpyrrolidin-1-yl)pyridin-4-yl)-3-chloro-5′-fluoro-2′-hydroxy-[1,1′-biphenyl]-4-yl)-3-methyl-1,3-dihydro-2H-imidazol-2-one] |
|  |  | 0.3 to 30 | 1 to 10 | CC(C)C(=O)Nc1cc(-c2cc(F)cc(-c3ccc(-n4ccn(C)c4=O)c(Cl)c3)c2O)cc(N2CC[C@H](N)C2)n1 [Example 524, (S)-N-(6-(3-aminopyrrolidin-1-yl)-4-(3′-chloro-5-fluoro-2-hydroxy-4′-(3-methyl-2-oxo-2,3-dihydro-1H-imidazol-1-yl)-[1,1′-biphenyl]-3-yl)pyridin-2-yl)isobutyramide] |
| 30 to 300 | 10 to 100 |  |  | COc1c(-c2cccc(N3CCN(C(C)(C)C)CC3)c2)cc(F)cc1-c1ccc(-n2ccn(C)c2=O)c(Cl)c1 [Example 859] |
|  |  | 0.3 to 30 | 1 to 10 | CN(C)[C@H]1CCCN(c2cc(-c3cc(F)cc(-c4ccc(-n5ccn(C)c5=O)c(Cl)c4)c3O)ccn2)C1 [Example 457, (S)-1-(3-chloro-3′-(2-(3-(dimethylamino)piperidin-1-yl)pyridin-4-yl)-5′-fluoro-2′-hydroxy-[1,1′-biphenyl]-4-yl)-3-methyl-1H-imidazol-2(3H)-one] |
|  |  | 0.3 to 30 | 0.01 to 1 | Cc1cc(-c2cncc(N3CCN[C@H](C)C3)c2)c(O)c(-c2ccc(-n3ccn(C)c3=O)c(F)c2)c1 [Example 545, (R)-1-(3-fluoro-2′-hydroxy-5′-methyl-3′-(5-(3-methylpiperazin-1-yl)pyridin-3-yl)-[1,1′-biphenyl]-4-yl)-3-methyl-1H-imidazol-2(3H)-one] |
|  |  | 30 to 300 | 1 to 10 | CN1CCN(c2ccc(-c3cc(F)cc(-c4cnc(NCCO)c(N5CCNCC5)c4)c3O)cc2Cl)C1=O [Example 405, 1-(3-chloro-5′-fluoro-2′-hydroxy-3′-(6-((2-hydroxyethyl)amino)-5-(piperazin-1-yl)pyridin-3-yl)-[1,1′-biphenyl]-4-yl)-3-methylimidazolidin-2-one] |
|  |  | 30 to 300 | 0.01 to 1 | Cn1ccn(-c2ccc(-c3cc(F)cc(-c4ccnc(N5CCN(CC(C)(C)C)CC5)c4)c3O)cc2Cl)c1=O [Example 651, 1-(3-chloro-5′-fluoro-2′-hydroxy-3′-(2-(4-neopentylpiperazin-1-yl)pyridin-4-yl)-[1,1′-biphenyl]-4-yl)-3-methyl-1H-imidazol-2(3H)-one] |
|  |  | 30 to 300 | 1 to 10 | Cn1ccn(-c2ccc(-c3cc(F)cc(-c4ccc5ncc(C(C)(C)O)cc5c4)c3O)cc2Cl)c1=O [Example 796, 1-(3-chloro-5′-fluoro-2′-hydroxy-3′-(3-(2-hydroxypropan-2-yl)quinolin-6-yl)-[1,1′-biphenyl]-4-yl)-3-methyl-1H-imidazol-2(3H)-one] |
